Laboratory results reported in patent publication US11684067B2, “Generation of peroxyformic acid through polyhydric alcohol formate” (priority 2014, dated 2023).
Counter-ions that a name gives are not always drawn.

Key:
[1] = Perhydrolysis of esters in H2O2 solution, peracid by iodometric titration; type: physicochemical; settings: 50 ppm ester; for peracid generation under the tested conditions: 150 ppm H2O2, pH 8.5; for Peracid: 150 ppm H2O2, pH 8.5, ambient
Description: (§1) [drawing 8] were added to 150 ppm H2O2 solution of pH 8.5 (DI water adjusted by adding 3.0 g of NaHCO3 per liter of water and then adjusted pH with Na2CO3) respectively under ambient conditions. The concentration of peroxycarboxylic acids were measured by an iodometric titration method.
as §1, with “Fifty (50) ppm various formic acid esters” for “[drawing 8]”, “method. […]” for “method.”

[2] = system: Nalidixic acid resistant E. coli O157:H7; experiment: Reduction of E. coli on raw beef brisket, dip treatment; type: cell-based; settings: 10 minutes dip, ambient, 220 ppm POAA / 180 ppm PFA / 50 ppm LAS per formula (Table 15)
Description: Nalidixic acid resistant E. coli O157:H7 was used to evaluate the efficacy in treatment with performic acid composition on raw beef brisket according to the conditions shown in Table 14.
The generation of PFA from the perhydrolysis of glycerol formates, PFA formulations, POAA formations and controls were evaluated as shown in Table 15.

[3] = system: pseudomonas; experiment: Suspension test in cooling tower water samples; type: cell-based; settings: 5 ppm Ester PFA / 6.13 ppm POAA, 10 minutes
Description: The antimicrobial efficacy of peroxyformic acid generated through the perhydrolysis of glycerol formatted were tested against pseudomonas in cooling tower samples at both 25° C. and 37° C., along with the peroxyacetic acid (POAA) controls, and the results are summarized in Table 6 and 7 below.

[4] = system: Aspergillus brasiliensis ATCC 16403; experiment: Anti-fungal suspension test of Ester PFA, dirty conditions; type: cell-based
From the text: Aspergillus brasilensis ATCC 16403 was used to evaluate the efficacy in treatment with performic acid compositions according to the conditions shown in Table 18.

[5] = system: Aspergillus brasiliensis ATCC 16404; experiment: Fungicidal activity of ester PFA, dirty conditions (Example 20); type: cell-based; settings: 35°C, 5 minutes
From the text: Various Bacillus and Aspergillus pathogens were used to evaluate the micro efficacy of ester PFA generated according to methods of the present invention.

[6] = Peninsula Cooling Water pH 8.81, 25°C
[7] = Peninsula Cooling Water pH 8.81, 37°C

SMILES: CCOC=O [Ethyl formate]
- peracid generation under the tested conditions [1]: no detectable peracid
- Peracid ([1]; 1 min): 0.00 ppm
- Peracid ([1]; 5 min): 0.00 ppm
- Peracid ([1]; 10 min): 0.00 ppm
- Peracid ([1]; 15 min): 0.00 ppm
- Peracid ([1]; 25 min): 0.00 ppm
- Peracid ([1]; 35 min): 0.00 ppm

SMILES: O=COO [Ester PFA, peroxyformic acid]
- Average Log CFU/cm2 [2]: 2.74 Log CFU/cm2
- Log reduction [2]: 1.30 Log
- Avg. Log10 Growth ([3]; BP Cooling Water pH 8.74, 25°C): 2.74 Log10
- Log10 Reduction ([3]; BP Cooling Water pH 8.74, 25°C): 2.93 Log10
- Avg. Log10 Growth ([3]; BP Cooling Water pH 8.74, 37°C): 2.68 Log10
- Log10 Reduction ([3]; BP Cooling Water pH 8.74, 37°C): 2.42 Log10
- Avg. Log10 Growth [3, 6]: 2.76 Log10
- Log10 Reduction [3, 6]: 2.42 Log10
- Avg. Log10 Growth [3, 7]: 2.70 Log10
- Log10 Reduction [3, 7]: 2.40 Log10
- Log10 Growth ([4]; 320 ppm PFA, 20°C, 5 minutes): 3.27 Log10
- Log10 Reduction ([4]; 320 ppm PFA, 20°C, 5 minutes): 2.57 Log10
- Log10 Growth ([4]; 320 ppm PFA, 20°C, 10 minutes): 2.22 Log10
- Log10 Reduction ([4]; 320 ppm PFA, 20°C, 10 minutes): 3.61 Log10
- Log10 Growth ([4]; 320 ppm PFA, 30 C., 5 minutes): 2.19 Log10
- Log10 Reduction ([4]; 320 ppm PFA, 30 C., 5 minutes): 3.64 Log10
- Log10 Growth ([4]; 320 ppm PFA, 30 C., 10 minutes): <2.15 Log10
- Log10 Reduction ([4]; 320 ppm PFA, 30 C., 10 minutes): >3.68 Log10
- Log10 Growth ([4]; 400 ppm PFA, 20°C, 5 minutes): <2.15 Log10
- Log10 Reduction ([4]; 400 ppm PFA, 20°C, 5 minutes): >3.68 Log10
- Log10 Growth ([4]; 400 ppm PFA, 20°C, 10 minutes): <2.15 Log10
- Log10 Reduction ([4]; 400 ppm PFA, 20°C, 10 minutes): >3.68 Log10
- Log10 Growth ([4]; 400 ppm PFA, 30 C., 5 minutes): 1.48 Log10
- Log10 Reduction ([4]; 400 ppm PFA, 30 C., 5 minutes): 4.36 Log10
- Log10 Growth ([4]; 400 ppm PFA, 30 C., 10 minutes): <2.15 Log10
- Log10 Reduction ([4]; 400 ppm PFA, 30 C., 10 minutes): >3.68 Log10
- Log10 Growth ([5]; Table 23: 300 ppm PFA): 3.87 Log10
- Log10 Reduction ([5]; Table 23: 300 ppm PFA): 2.26 Log10
- Log10 Growth ([5]; Table 23: 350 ppm PFA): 2.23 Log10
- Log10 Reduction ([5]; Table 23: 350 ppm PFA): 3.91 Log10

SMILES: CC(=O)OCC(COC(C)=O)OC(C)=O [Triacetin]
- peracid generation under the tested conditions [1]: no detectable peracid
- Peracid ([1]; 1 min): 0.00 ppm
- Peracid ([1]; 5 min): 0.00 ppm
- Peracid ([1]; 10 min): 0.00 ppm
- Peracid ([1]; 15 min): 0.00 ppm
- Peracid ([1]; 25 min): 0.00 ppm
- Peracid ([1]; 35 min): 0.00 ppm
